Reference: patent US20090042901A1, “AGENT FOR PREVENTION/THERAPY OF DISEASE CAUSED BY KERATINOCYTE GROWTH” (KOWA CO., LTD., priority 2005, published 2009)
Like-named read-outs stand apart in the source and are kept apart here.

Tests used:
VCAM-1 expression = VCAM-1 expression inhibitory activity in TNFα-stimulated HUVEC; format: cell-based; settings: Homo sapiens, TNFα 10 ng/mL, 4.5 hours, read-out: VCAM-1 expression inhibitory action IC50
Protocol: Human umbilical vein endothelial cells (HUVEC) (Sanko Junyaku Co., Ltd.) were suspended in EGM-2 medium (Sanko Junyaku Co., Ltd.) at a concentration of 5×10^4 cells/mL, and were inoculated on a 96-well plate (Corning Corp.) at a concentration of 1×10^4 cells/well. The cells were cultured at 37° C. in the presence of 5% CO2 for 4 days, then 100 μL of the medium was removed, and 25 μL each of the substance under test and TNFα (final concentration 10 ng/mL, PeproTech, Inc.) were added. After incubating the cells for 4.5 hours at 37° C., the medium was removed, and each well was washed once with 100 μL of Hank's Balanced Salt Solution containing 0.5% bovine serum albumin and 0.02% sodiumazide (HBSS/BSA). Subsequently, 30 μL of a blocking solution (1% whole goat serum (ICN Biomedicals, Inc.)/HBSS/BSA) was added, and the plate was left to stand for 30 minutes on the ice. After washing once with 100 μL of HBSS/BSA, 1 μg/mL of anti-human VCAM-1 antibody (Genzyme-Techne, Inc.) was added to each well in an amount of 30 μL, and the plate was incubated on the ice for 1 hour. After washing three times with HBSS/BSA (200 μL), peroxidase-labeled goat anti-mouse IgG antibody (Pierce Biotechnology, Inc.) diluted 2000-folds with HBSS/BSA was added in an amount of 30 μL/well, and was allowed to react for 1 hour. After washing 5 times with HBSS/BSA as described above, 100 μL/well of TMB substrate (Moss Inc.) was added, an enzymatic reaction was allowed to proceed for 15 to 30 minutes at 25° C., and then 1 mol/L sulfuric acid was added in an amount of 25 μL/well to stop the reaction. The absorbance at 492 nm was measured using a reference wavelength of 620 nm and using a 96-well plate spectrophotometer, Multiscan MS-UV (Labsystems, Inc.). The inhibitory rate was determined by taking the absorbance for the case of TNFα stimulation without drug addition, as 100%. In addition, the measurement was performed three times for each group.

[1] = test system: Normal human keratinocytes (newborn infant foreskin-derived epidermal keratinocyte); assay: Growth of normal human keratinocytes (H3-thymidine uptake); format: cell-based; settings: for IC50: Homo sapiens, Keratinocyte, H3-thymidine uptake, 22 h + 2 h culture, 0.01 to 10 μM, read-out: Human keratinocyte growth inhibition IC50
Protocol: Normal human keratinocytes (purchased from Kurabo Industries, Ltd.) were inoculated on a 48-well plate (Coster Corp.) at a concentration of 4×10^4 cells/well/500 μL, and were cultured overnight at 37° C. in the presence of 5% CO2. A compound of the present invention or activated vitamin D3 (Calcitriol; Wako Pure Chemical Industries, Ltd.) was added to a final concentration of 0.01 to 10 μM, and the cells were cultured for 22 hours. H^3-thymidine (Amersham plc.) was added, and the cells were incubated for another 2 hours. Subsequently, the cells were recovered after washing, and in a liquid scintillation counter (Packard Instrument Company, Inc.), the radioactivity taken up by the cells was measured. The results are presented as a ratio of the radioactivity taken up by the cells upon drug addition, with respect to the radioactivity of the case with no drug addition (Control), which was taken as 100%. The IC50 value, which is the concentration of the drug for inhibiting the uptake of radioactivity to 50% with respect to the control, was lower in the case of any of the Compounds 1 to 8 than in the case of Calcitriol.

[2] = test system: TPA-stimulated SKH1-hrBR-Hairless mouse; assay: Skin thickening in TPA-stimulated hairless mouse; format: in vivo; settings: dorsal application of 50 μL after 10 nmol TPA, measured after 24 hours (FIG. 1)
Protocol: As an animal model for psoriasis, hairless mice stimulated with 12-O-tetradecanoylphorbol-13-acetate (hereinafter, referred to as TPA) were used (Sato, et al., Dermatology (1996) 192, 233-238). That is, on the dorsal side of a 7 to 8 weeks old female SKH1-hrBR-Hairless mouse (Charles River Laboratories Japan, Inc.), 10 nmol of TPA dissolved in acetone was applied, and then 50 μL of either the drug dissolved in acetone or Bonalfa (registered trademark) High (Teijin Pharma, Ltd.) was applied. After 24 hours, the thickness of the skin on the dorsal side was measured using a dial thickness gauge (Peacock G-1A, Ozaki MFG. Co., Ltd.), and the difference between the measured skin thickness and the skin thickness measured before TPA application was determined. The thickening of the skin thickness was suppressed by the application of the activated vitamin D3 preparation (Bonalfa (registered trademark) High). Also, the thickening of the skin thickness was suppressed by the application of the Compound 4.

| SMILES | IC50 (VCAM-1 expression) | IC50 ([1]; 24 h) | IC50 [1] | Efficacy relative to Calcitriol (keratinocyte growth inhibition IC50) ([1]; compared with Calcitriol) | Thickening of the skin thickness [2] |
| --- | --- | --- | --- | --- | --- |
| COc1cc(-c2cncc(CN(c3ccc(SC)cc3)C3CCN(Cc4ccnc(-c5cc(OC)c(OC)c(OC)c5)c4)CC3)c2)cc(OC)c1OC [Compound 2] | 5 nM | 44 nM |  |  |  |
| COc1cc(OC)cc(N(Cc2ccnc(-c3cc(OC)c(OC)c(OC)c3)c2)C2CCN(Cc3ccnc(-c4cc(OC)c(OC)c(OC)c4)c3)CC2)c1 [Compound 3] |  | 49 nM |  |  |  |
| COc1cc(-c2cc(CN3CCC(N(C)Cc4ccnc(-c5cc(OC)c(OC)c(OC)c5)c4)CC3)ccn2)cc(OC)c1OC [Compound 1] | 80 nM | 66 nM |  |  |  |
| COc1ccc(N(Cc2ccnc(-c3cc(OC)c(OC)c(OC)c3)c2)C2CCN(Cc3ccnc(-c4cc(OC)c(OC)c(OC)c4)c3)CC2)cc1 [Compound 4] | 20 nM | 247 nM | 247 nM | about 8 times | suppressed |
